Data as given in PubChem BioAssay (NCI).
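1) Cells in 96-well plates. 2) Compound, 48 h, 5 concentrations. 3) Linear interpolation between surrounding doses. 4) Unreached endpoint = highest concentration. Definition used: TGI = concentration required for complete inhibition of growth.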

How the values were obtained:
Test in all cases: NCI tumour cell line growth inhibition, 48 h
SF-268 CNS = test system: SF-268 CNS
U251 CNS = test system: U251 CNS
SN12C renal = test system: SN12C renal
LXFL 529 NSCLC = test system: LXFL 529 NSCLC
OVCAR-3 ovarian = test system: OVCAR-3 ovarian
NCI-H460 lung = test system: NCI-H460 lung
786-0 renal = test system: 786-0 renal
HCC-2998 colon = test system: HCC-2998 colon
IGROV1 ovarian = test system: IGROV1 ovarian
OVCAR-8 ovarian = test system: OVCAR-8 ovarian
CAKI-1 renal = test system: CAKI-1 renal
K-562 leukemia = test system: K-562 leukemia
EKVX NSCLC = test system: EKVX NSCLC
UACC-62 melanoma = test system: UACC-62 melanoma
SK-MEL-2 melanoma = test system: SK-MEL-2 melanoma
HCT-116 colon = test system: HCT-116 colon
MOLT-4 leukemia = test system: MOLT-4 leukemia
SK-OV-3 ovarian = test system: SK-OV-3 ovarian
SF-539 CNS = test system: SF-539 CNS
SK-MEL-5 melanoma = test system: SK-MEL-5 melanoma
M19-MEL melanoma = test system: M19-MEL melanoma
DMS 114 small cell lung = test system: DMS 114 small cell lung
A498 renal = test system: A498 renal
HOP-92 NSCLC = test system: HOP-92 NSCLC
CCRF-CEM leukemia = test system: CCRF-CEM leukemia
NCI-H522 lung = test system: NCI-H522 lung
HL-60(TB) leukemia = test system: HL-60(TB) leukemia
M14 melanoma = test system: M14 melanoma
UO-31 renal = test system: UO-31 renal
MALME-3M melanoma = test system: MALME-3M melanoma
NCI-H226 lung = test system: NCI-H226 lung
DLD-1 colon = test system: DLD-1 colon
OVCAR-4 ovarian = test system: OVCAR-4 ovarian
HOP-18 NSCLC = test system: HOP-18 NSCLC
XF 498 CNS = test system: XF 498 CNS
HOP-62 NSCLC = test system: HOP-62 NSCLC
ACHN renal = test system: ACHN renal
NCI-H23 lung = test system: NCI-H23 lung
TK-10 renal = test system: TK-10 renal
UACC-257 melanoma = test system: UACC-257 melanoma
SF-295 CNS = test system: SF-295 CNS
COLO 205 colon = test system: COLO 205 colon
KM20L2 colon = test system: KM20L2 colon
OVCAR-5 ovarian = test system: OVCAR-5 ovarian
DMS 273 small cell lung = test system: DMS 273 small cell lung
HCT-15 colon = test system: HCT-15 colon
RPMI-8226 leukemia = test system: RPMI-8226 leukemia
KM12 colon = test system: KM12 colon
A549 NSCLC = test system: A549 NSCLC
SW-620 colon = test system: SW-620 colon
SNB-19 CNS = test system: SNB-19 CNS
SNB-78 CNS = test system: SNB-78 CNS
HT29 colon = test system: HT29 colon

Measured: TGI

C=C1CCC23CC(CC[C@@H]2[C@@]12C[C@@H](c1ccoc1)OC2=O)OC3=O (stereo partly drawn)
> 100 µM: all assays above
